Data on twelve compounds can be found in PubChem BioAssay (NCI).

Common to all, as to experiment: NCI anticancer screen, dose series, 48 h
Assay [1] deals with HOP-92 NSCLC.
Assay [2] has as its system OVCAR-5 ovarian.
Assay [3] deals with TK-10 renal.
Assay [4] deals with NCI-H522 lung.
The subject of assay [5] is SW-620 colon.
For assay [6], the system named is SF-268 CNS.
For assay [7], the system named is SF-295 CNS.
The test system of assay [8] is A549 NSCLC.
Assay [9] concerns U251 CNS.
The subject of assay [10] is CAKI-1 renal.

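Following 48 hours of exposure in 96-well plates, responses at five concentrations were used to interpolate endpoints linearly. Abbreviation: GI50, concentration required for 50% inhibition of growth. Definition used: TGI = concentration required for complete inhibition of growth.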

As for `C/C(=C\CCc1ccoc1)CC/C=C(\C)CCCN1CCOCC1`, the GI50 was 1430 nM in [1]; 7.17 µM in assay [2]; 11 µM in [3]; 10900 nM in [4]; 3430 nM in assay [5]; 7030 nM in assay [6]. Besides, the GI50 in assay [7] is 3950 nM; in assay [8], 9.08 µM; in assay [9] it was 6290 nM; in [10], 3650 nM. Besides, the TGI is 5.49 µM in assay [1]; 21.3 µM in assay [2]; 23.8 µM in [3]; 26.8 µM in assay [4]; 14.6 µM in [5]; 21.7 µM in [6]. Also, the TGI in assay [7] came out at 16.1 µM; in [8], 23.2 µM; in assay [9], 19.1 µM; in assay [10] it was 14.9 µM.
Consider `CS(=O)(=O)Nc1ccc(-c2cc(-c3ccccc3)cc(C(N)=O)c2N)cc1`, for which the GI50 in [1] is 8900 nM; in assay [2], over 25 µM; in [3], over 25 µM; in assay [4], 15300 nM; in assay [5], over 25000 nM; in assay [6] it was over 25000 nM. Moreover, the GI50 in assay [7] was 24600 nM; in [8] it was 20.2 µM; in assay [9], over 25000 nM; in assay [10] it was over 22600 nM. Also, the TGI in assay [1], in [2], in [3], in assay [4], in assay [5] and in assay [6] was over 25 µM in each case. Further, the TGI in assay [7], in assay [8], in [9] and in [10] was over 25 µM each time.
In the case of `O=C1c2ccccc2S(=O)(=O)N1CSC(=S)N1CCCCC1`, the GI50 in [1] is over 100000 nM; in assay [2] it was over 100 µM; in assay [3], over 100 µM; in [4] it was 2050 nM; in assay [5], over 100000 nM; in assay [6] it was over 100000 nM. Also, the GI50 in assay [7] was over 100000 nM; in assay [8], over 100 µM; in assay [9], over 100000 nM; in [10], over 100000 nM. Also, the TGI in [1], in [2], in assay [3], in assay [4], in assay [5] and in [6] was over 100 µM in each case. For the same compound, the TGI in [7], in assay [8], in assay [9] and in assay [10] was over 100 µM each time.
On to `NS(=O)(=O)c1ccc(NC2=CC(=O)C(=O)c3ccccc32)cc1`, for which the TGI in assay [1], in assay [2], in assay [3], in assay [4], in assay [5] and in assay [6] was over 100 µM each time. Moreover, the TGI in [7], in [8], in assay [9] and in [10] was over 100 µM in each case.
Turning to `NC1CCC(Nc2nc(NCc3ccc(-c4cccs4)nc3)c3ncn(C4CCCC4)c3n2)CC1` (configuration not stated), the GI50 in assay [1] is 30 nM; in [2], 0.0302 µM; in assay [3], 0.166 µM; in assay [4] it was under 16 nM; in [5], under 15.2 nM; in assay [6], 18.8 nM. Besides, the GI50 is 81.9 nM in assay [7], 0.0237 µM in assay [8], 32.7 nM in assay [9] and 1620 nM in assay [10]. For the same compound, the TGI stood at 0.134 µM in assay [1]; 2.58 µM in [2]; 2.69 µM in [3]; 0.049 µM in [4]; 2.03 µM in assay [5]; 1.08 µM in assay [6]. The TGI in [7] stood at 0.699 µM; in assay [8] it was 2.04 µM; in [9] it was 0.434 µM; in assay [10], 9.92 µM.
On to `COC1CCN(C(=O)c2cc(Cc3n[nH]c(=O)c4ccccc34)ccc2F)CC1`, for which the GI50 in [1] was 41500 nM; in assay [2], over 100 µM; in assay [3], over 100 µM; in [4], 33500 nM; in assay [5], over 100000 nM; in [6] it was 58300 nM. In addition, the GI50 in assay [7] is 24200 nM; in [8], 58.9 µM; in [9], over 55300 nM; in assay [10], 32300 nM. Further, the TGI in assay [1], in assay [2], in assay [3], in [4], in assay [5] and in assay [6] was over 100 µM in each case. In addition, the TGI in assay [7], in assay [8], in assay [9] and in assay [10] was over 100 µM in each case.
As for `CN(Cc1cc(Br)cc(Br)c1O)Cc1cc(Br)cc(Br)c1O`, the GI50 in assay [1] is 1420 nM; in [2], 6.13 µM; in assay [3], 4.26 µM; in [4], 1730 nM; in [5], 2330 nM; in assay [6], 2870 nM. Besides, the GI50 in assay [7] is 847 nM; in assay [8], 2.19 µM; in assay [9], 689 nM; in [10] it was 612 nM. The TGI worked out at 8.87 µM in assay [1]; 21.9 µM in [2]; 20.4 µM in assay [3]; 7.14 µM in assay [4]; 16.9 µM in [5]; 21.1 µM in [6]. Also, the TGI in assay [7] is 11.9 µM; in assay [8], 15.4 µM; in assay [9], 13.3 µM; in assay [10] it was 12.5 µM.
On to `CC(=O)Nc1cc(N(CCOS(C)(=O)=O)CCOS(C)(=O)=O)ccc1N=O`, for which the TGI in assay [1], in assay [2], in assay [3], in assay [4], in assay [5] and in assay [6] was over 100 µM each time. Also, the TGI in assay [7], in assay [8], in assay [9] and in assay [10] was over 100 µM in each case.
As to `O=C1C(=O)c2c(nc3ccc(Br)cn23)-c2ccccc21`, the GI50 is 1220 nM in assay [1]; 1.78 µM in assay [2]; 2.28 µM in [3]; 588 nM in [4]; 622 nM in assay [5]; 543 nM in assay [6]. The GI50 in assay [7] is 1610 nM; in assay [8], 1.66 µM; in assay [9], 588 nM; in [10] it was 1520 nM. In addition, the TGI in [1] was determined as 2.7 µM; in assay [2] it was 3.25 µM; in assay [3], 3.78 µM; in [4] it was 2.22 µM; in assay [5], 1.76 µM; in [6], 1.97 µM. Besides, the TGI is 3.02 µM in [7], 3.81 µM in assay [8], 1.87 µM in assay [9] and 3.01 µM in [10].
For the compound `CCCCCCCCCCCCCC1=NCCN1CCO`, the GI50 in assay [1] was 3650 nM; in [2], 5.47 µM; in [3] it was 4.75 µM; in assay [4], 2520 nM; in assay [5] it was 2250 nM; in assay [6] it was 2830 nM. The GI50 is 2190 nM in assay [7], 3.52 µM in assay [8], 2100 nM in [9] and 2340 nM in [10]. The TGI in assay [1] stood at 23.6 µM; in [2] it was 18.3 µM; in assay [3], 12.7 µM; in assay [4], 6.13 µM; in assay [5] it was 5.22 µM; in assay [6], 8.12 µM. Further, the TGI is 6.18 µM in assay [7], over 100 µM in [8], 4.95 µM in assay [9] and 7.27 µM in assay [10].
In the case of `CN(C)CCNC(=O)C(C)(C)Oc1ccc(C(=O)c2ccc(Cl)cc2)cc1Cl`, the TGI was determined as 18.1 µM in assay [1]; 28.9 µM in assay [2]; 23.7 µM in assay [3]; 28.2 µM in [4]; 18.3 µM in assay [5]; 28.7 µM in assay [6]. The TGI in assay [7] amounted to 22.6 µM; in [8], 24.6 µM; in assay [9] it was 20 µM; in assay [10] it was 26.2 µM. In addition, the GI50 in assay [7] was 4740 nM; in [8], 12.2 µM.
As for `c1cc2[nH]ncc2cc1-c1nc2ccc3[nH]ncc3c2c2c1CCCC2`, the GI50 in assay [1] is 966 nM; in assay [2], 3.06 µM; in [3] it was 0.913 µM; in assay [4], 424 nM; in [5], 441 nM; in assay [6], 2310 nM. Moreover, the GI50 in [7] is 1840 nM; in assay [8] it was 1.78 µM; in assay [9], 2660 nM; in assay [10] it was 434 nM. Besides, the TGI in assay [1] is 4.58 µM; in assay [2], 18.5 µM; in assay [3], 21.8 µM; in assay [4], 3.16 µM; in assay [5] it was 11.2 µM; in assay [6], 14 µM. The TGI in assay [7] is 7.58 µM; in [8] it was over 31.4 µM; in assay [9], 15.5 µM; in assay [10], 5.62 µM.
